Experimental findings from patent publication US5843735A, “Aklavinone C-11 hydroxylase, gene coding for same, expression vector therefor, and process for preparing hybrid antibiotics by using said vector” (priority 1995, dated 1998) are described below.

Read-outs that look alike come from different tables or passages of the source.

One data set relates to human cancer cell lines. Nature of the data set: Anticancer / growth inhibiting activity against the human cancer cell line panel, overall. The format is cell-based. Conditions: for growth inhibiting activities compared with aclacinomycin A: various human cancer cell lines. The method, then: (§1) The anticancer activities of aclacinomycin X, 11-hydroxy aclacinomycin X and 11-hydroxy aclacinomycin A were determined by using a reduced human cancer cell line panel(supplier: National Cancer Institute, U.S.A.) in accordance with the method of National Cancer Institute, U.S.A. (Monks, A., et al., J. Natl. Cancer Inst., 83, 757-766(1991)), and the results are shown in Table I.

The test system of a further data set is UO-31. Nature of the data set: Anticancer activity, reduced human cancer cell line panel (NCI method), Renal Cancer. The format is cell-based. Conditions: UO-31, read-out: Log10 LC50 (converted). The procedure:
as §1

The test system of a further data set is 786-0. The data set is described as above. The format is cell-based. Conditions: 786-0, read-out: Log10 LC50 (converted). The procedure:
as §1

For another data set, the system named is U251. Kind of data set: Anticancer activity, reduced human cancer cell line panel (NCI method), CNS Cancer. The format is cell-based. The procedure:
as §1

Another data set concerns SF-268. The data set is described as above. The format is cell-based. Conditions: SF-268, read-out: Log10 LC50 (converted). The procedure: as §1
In another data set the test system is MCF7. Kind of data set: Anticancer activity, reduced human cancer cell line panel (NCI method), Breast Cancer. The format is cell-based. Conditions: MCF7, read-out: Log10 LC50 (converted). The procedure: as §1
The subject of another data set is MDA-N. The data set is described as above. The format is cell-based. Conditions: read-out: Log10 LC50 (converted). The method, then:
as §1

Data set [1] is described as follows: Solubility in organic solvents. Conditions: methanol (MeOH), chloroform (CHCl3).
The next data set concerns SK-MEL-2. Nature of the data set: Anticancer activity, reduced human cancer cell line panel (NCI method), Melanoma. The format is cell-based. Conditions: SK-MEL-2, read-out: Log10 LC50 (converted). The method, then: as §1
A further data set relates to MALME-3M. The description is as above. The format is cell-based. Conditions: read-out: Log10 LC50 (converted). The method, then:
as §1

For a further data set, the system named is HT29. Nature of the data set: Anticancer activity, reduced human cancer cell line panel (NCI method), Colon Cancer. The format is cell-based. The procedure:
as §1

The test system of a further data set is OVCAR-3. Nature of the data set: Anticancer activity, reduced human cancer cell line panel (NCI method), Ovarian Cancer. Conditions: OVCAR-3, read-out: Log10 LC50 (converted). The format is cell-based. The method, then:
as §1

The next data set relates to A-549. Kind of data set: Anticancer activity, reduced human cancer cell line panel (NCI method), Non-Small Cell Lung Cancer. The format is cell-based. The method, then:
as §1

The subject of another data set is EKVX. Described as above. Conditions: read-out: Log10 LC50 (converted). The format is cell-based. The procedure: as §1
The next data set relates to HL-60 TB. Nature of the data set: Anticancer activity, reduced human cancer cell line panel (NCI method), Leukemia. The format is cell-based. Conditions: for LC50 (50% lethal concentration): Leukemia, HL-60 TB, read-out: Log10 LC50 (converted). The method, then: as §1
The subject of another data set is K-562. The data set is described as above. The format is cell-based. The procedure:
as §1

For another data set, the system named is DU-145. Kind of data set: Anticancer activity, reduced human cancer cell line panel (NCI method), Prostate Cancer. The format is cell-based. Conditions: DU-145, read-out: Log10 LC50 (converted). The procedure: as §1
Another data set has as its system PC-3. The description is as above. The format is cell-based. Conditions: PC-3, read-out: Log10 LC50 (converted). The method, then:
as §1

In the next data set the test system is HCC-2298. Kind of data set: Anticancer activity, reduced human cancer cell line panel (NCI method), Colon Cancer. The format is cell-based. The procedure:
as §1

The subject of a further data set is SK-OV-3. Nature of the data set: Anticancer activity, reduced human cancer cell line panel (NCI method), Ovarian Cancer. The format is cell-based. Conditions: SK-OV-3, read-out: Log10 LC50 (converted). The method, then: as §1
Setting [2] is: U-251, CNS Cancer, U251, read-out: Log10 LC50 (converted).
Setting [3] is: HT-29, Colon Cancer, HT29, read-out: Log10 LC50 (converted).
Where [4] appears, read: A549, Non-Small Cell Lung Cancer, A-549, read-out: Log10 LC50 (converted).
The mark [5] stands for this setting: K562, Leukemia, K-562, read-out: Log10 LC50 (converted).

As to `CC[C@@]1(O)C[C@H](O[C@H]2C[C@H](N(C)C)[C@H](O[C@H]3C[C@H](O)[C@H](O[C@@H]4O[C@@H](C)C(=O)C=C4N)[C@H](C)O3)[C@H](C)O2)c2c(O)c3c(c(O)c2[C@H]1C(=O)OC)C(=O)c1cccc(O)c1C3=O` [11-Hydroxy aclacinomycin X, 11-hydroxy aclacinomycin X], the “anticancer activities compared with aclacinomycin X” value in the data set with human cancer cell lines (leukemia, melanoma and breast cancer cell lines) was “higher than aclacinomycin X”. Also, the “growth inhibiting activities compared with aclacinomycin A” value with human cancer cell lines was “higher growth inhibiting activities than aclacinomycin A”. Besides, the CC50 in the data set with UO-31 (Renal Cancer) was 15.5 µM; in the data set with U251 (setting [2]), more than 100 µM; with SF-268 (CNS Cancer), more than 100 µM; in the data set on MDA-N (Breast Cancer), more than 100 µM; in the data set with SK-MEL-2 (Melanoma), less than 0.01 µM; in the data set on HT29 (setting [3]), 47.9 µM. The CC50 was more than 100 µM in the data set on OVCAR-3 (Ovarian Cancer), 0.977 µM with EKVX (Non-Small Cell Lung Cancer) and 7.59 µM in the data set on K-562 (setting [5]). Also, the LC50 (50% lethal concentration) in the data set with 786-0 (Renal Cancer) was 4.57 µM; in the data set with MCF7 (Breast Cancer) it was 30.9 µM; in the data set with HL-60 TB, 0.234 µM. Moreover, the “dissolves easily (solubility)” value in data set [1] is “dissolves easily in MeOH or CHCl3”. Further, the LC50 (concentration killing 50% of cells) with MALME-3M (Melanoma, MALME-3M) was 0.0537 µM. Further, the 50% lethal concentration (LC50) (commonly the concentration that kills 50% of the test population) is 21.4 µM in the data set with A-549 (setting [4]), 41.7 µM with DU-145 (Prostate Cancer) and 6.76 µM in the data set on PC-3 (Prostate Cancer).
Turning to `CC[C@@]1(O)C[C@H](O[C@H]2C[C@H](N(C)C)[C@H](O[C@H]3C[C@@H]4OC5CC(=O)C(C)OC5O[C@@H]4[C@H](C)O3)[C@H](C)O2)c2c(O)c3c(c(O)c2[C@H]1C(=O)OC)C(=O)c1cccc(O)c1C3=O` (stereo partly drawn) [11-hydroxy aclacinomycin B], the “dissolves easily (solubility)” value in data set [1] is “dissolves easily in MeOH and CHC13”.
Take `CC[C@@]1(O)C[C@H](O[C@H]2C[C@H](N(C)C)[C@H](O[C@H]3C[C@H](O)[C@H](O[C@H]4CCC(=O)[C@H](C)O4)[C@H](C)O3)[C@H](C)O2)c2c(O)c3c(c(O)c2[C@H]1C(=O)OC)C(=O)c1cccc(O)c1C3=O` [11-Hydroxy aclacinomycin A, 11-hydroxy aclacinomycin A]: in the data set with human cancer cell lines (leukemia, colon cancer and melanoma cell lines), the anticancer activity entry is on record as “high anticancer activity”. In the data set on human cancer cell lines, the “growth inhibiting activities compared with aclacinomycin A” value is “higher growth inhibiting activities than aclacinomycin A”. For the same compound, the CC50 in the data set on UO-31 was 19.1 µM; in the data set with U251 (U-251, read-out: Log10 LC50 (converted)), 56.2 µM; in the data set with SF-268 it was 79.4 µM; in the data set on MDA-N it was 100 µM; with SK-MEL-2, less than 0.01 µM; with HCC-2298 (read-out: Log10 LC50 (converted)), less than 0.01 µM. Further, the CC50 in the data set on HT29 (HT-29, read-out: Log10 LC50 (converted)) is 12.9 µM; in the data set on OVCAR-3, 72.4 µM; in the data set with SK-OV-3 it was 38.9 µM; with EKVX it was 0.257 µM; in the data set with HL-60 TB (HL-60, read-out: Log10 LC50 (converted)) it was less than 0.01 µM; in the data set on K-562 (K562, read-out: Log10 LC50 (converted)), 1.78 µM. Also, the LC50 (50% lethal concentration) with 786-0 was 8.32 µM; in the data set with MCF7, 25.1 µM. In [1], the “dissolves easily (solubility)” value was “dissolves easily in MeOH or CHCL3”. The LC50 (concentration killing 50% of cells) with MALME-3M (Malme-3M) was 0.0676 µM. Besides, the median lethal concentration (LC50) in the data set with A-549 (A549, read-out: Log10 LC50 (converted)) was 24.5 µM; in the data set on DU-145, 24.5 µM; with PC-3, 14.5 µM.
Turning to `CC[C@@]1(O)C[C@H](O[C@H]2C[C@H](N(C)C)[C@H](O[C@H]3C[C@H](O)[C@H](O[C@@H]4O[C@@H](C)C(=O)C=C4N)[C@H](C)O3)[C@H](C)O2)c2c(cc3c(c2O)C(=O)c2c(O)cccc2C3=O)[C@H]1C(=O)OC` [Aclacinomycin X, aclacinomycin X], in the data set on human cancer cell lines (colon cancer, melanoma and breast cancer cell lines), the selective anticancer activities result was “selective anticancer activities against colon cancer, melanoma and breast cancer cell lines”. In the data set on human cancer cell lines, the “growth inhibiting activities compared with aclacinomycin A” value is listed as “higher growth inhibiting activities than aclacinomycin A”. The CC50 is 26.3 µM in the data set with UO-31 (Renal Cancer); 18.2 µM with U251 (setting [2]); 11.2 µM with SF-268 (CNS Cancer); more than 100 µM in the data set with MDA-N (Breast Cancer); 0.0525 µM in the data set on SK-MEL-2 (Melanoma); 0.191 µM with HCC-2298 (Colon Cancer, HCC-2298, read-out: Log10 LC50 (converted)). The CC50 in the data set on HT29 (setting [3]) is 30.9 µM; in the data set on OVCAR-3 (Ovarian Cancer), more than 100 µM; in the data set with SK-OV-3 (Ovarian Cancer), more than 100 µM; with EKVX (Non-Small Cell Lung Cancer), 18.6 µM; in the data set with K-562 (setting [5]), 60.3 µM. Moreover, the results for the LC50 (50% lethal concentration) in the data set on 786-0 (Renal Cancer), with MCF7 (Breast Cancer) and with HL-60 TB were 18.2 µM, 43.7 µM and 30.9 µM, respectively. Further, the “dissolves easily (solubility)” value in data set [1] is recorded as “dissolves easily in methanol or chloroform”. Moreover, the LC50 (concentration killing 50% of cells) in the data set with MALME-3M (Melanoma, MALME-3M) is 0.562 µM. Besides, the LC50 with A-549 (setting [4]) is 4.07 µM; in the data set with DU-145 (Prostate Cancer) it was 30.2 µM; in the data set on PC-3 (Prostate Cancer) it was 8.32 µM.
For the compound `CC[C@@]1(O)C[C@H](O[C@H]2C[C@H](N(C)C)[C@H](O)[C@H](C)O2)c2c(O)c3c(c(O)c2[C@H]1C(=O)OC)C(=O)c1cccc(O)c1C3=O` [11-Hydroxy aclacinomycin T, 11-hydroxy aclacinomycin T], the “dissolves easily (solubility)” value in [1] was “dissolves easily in MeOH or CHC13”.
